Laboratory results reported in US20060088477A1 (priority 2004, published 2006).

How the values were obtained:
viruses = conditions: cited from earlier work
normal cells = conditions: cited from earlier work
[1] = zinc salt; cited from earlier work
inflammation = tested on: inflammation
From the text: Another exemplary metal complex is disodium monozinc (II) citrate dihydrate, sold under the tradename MZC™ by National Research Laboratories, Ltd. of Cincinnati, Ohio.

Molecule | toxicity to viruses (viruses) | toxicity to normal cells (normal cells) | pH [1] | anti-inflammatory performance (inflammation)
CC(=O)[O-].CC(=O)[O-].[Zn+2] [zinc acetate] | very toxic to viruses | quite toxic to normal cells | about 5 | 
disodium monozinc (II) citrate dihydrate [MZC] |  |  |  | dramatic anti-inflammatory performance
